These are literature values, as cited in patent publication US20100055036A1, “PET VISUALIZATION OF AMYLOID-ASSOCIATED NEUROINFLAMMATION IN THE BRAIN” (National Institute of Radiolotgical Sciences, priority 2007, published 2010).

In this data set the test system is amyloid plaque lesions in mouse brain. The conditions noted are these: mice developing abundant plaque lesions vs WT.

Take `[11CH3]Nc1ccc(-c2nc3ccc(O)cc3s2)cc1` [[^11C]6-OH-BTA-1, N-[^11C]methyl-2-(4′-methylaminophenyl)-6-hydroxybenzothiazole]: the “PET data in brains of plaque-bearing mice compared with wild-type mouse brains” value was “virtually indistinguishable”.
